# Reference: US20240002429A1, “PRODRUG OF 5a-HYDROXY-6ß-[2-(1H-IMIDAZOL-4-YL)ETHYLAMINO]CHOLESTAN-3ß-OL AND PHARMACEUTICAL COMPOSITIONS COMPRISING SAME FOR USE IN THE TREATMENT OF CANCER” (priority 2020, published 2024)
# Where two headings read alike, the source gives them in different places.
# Key:
# [1] = system: MCF-7 mammary tumor cells; assay: cells; type: cell-based; details: Homo sapiens, MCF7, 48 h, read-out: cellular viability relative to the control group
# Procedure: A cell viability test was carried out on MCF-7 mammary tumor cells (Michigan Cancer Foundation-7) […] (ER(+) cells) containing receptors for the hormone estrogen.
# The MCF-7 cells are in a cell culture medium identical to example 14 and are seeded in 12-well plates at 50000 cells per well for 24 h. 24 hours after seeding, the cells are treated with the solvate vehicle comprising water and ethanol with an ethanol ratio 1‰ and comprising 5α-hydroxy-6β-[2-(1H-imidazol-4-yl)-ethylamino]-cholestan-3β-yl propionate or 5α-hydroxy-6β-[2-(1H-imidazol-4-yl)-ethylamino]-cholestan-3β-ol at 1, 2.5 or 5 μM. The cells are observed in an inverted microscope and photographed with the microscope camera at 24 h and 48 h. The morphological changes of the cells at 1 μM are very slight.
# Following these observations, a cell viability test is measured by MTT labeling at 48 hours. This test is based on the use of the tetrazolium salt MTT (3-(4,5-dimethylthiazol-2-yl)-2,5-diphenyltetrazolium bromide). Tetrazolium is reduced by mitochondrial succinate dehydrogenase of active living cells, in formazan, precipitate of violet color. The amount of precipitate formed is proportional to the quantity of living cells but also to the metabolic activity of each cell. […] After 48 hours, the medium is aspirated, the cells are washed with phosphate-buffered saline (PBS) and then incubated with MTT (0.5 mg/ml in PBS) for about 2 hours. The MTT solution is aspirated and then the violet crystals are dissolved in dimethylsulfoxide (DMSO). The OD (optical density) is measured at 540 nm.
# The control group is carried out similarly to the study groups without adding the molecules studied in the present text. Compared to the control, a decrease is measured, dependent on the dose of […], in cellular viability in MTT for 5α-hydroxy-6β-[2-(1H-imidazol-4-yl)-ethylamino]-cholestan-3β-yl propionate and 5α-hydroxy-6β-[2-(1H-imidazol-4-yl)-ethylamino]-cholestan-3β-ol.
# [2] = system: 4T1 tumors; assay: Effect on 4T1 tumor growth and survival in vivo; details: 4T1 tumors in Balb/c mice, 40 mg/kg by stomach tube every day; for Median survival: Kaplan-Meier; for Inhibition of tumor growth: day 8 vs day 0
# Procedure: All the procedures on the animals were carried out in accordance with the guidelines of our institution after being approved by the ethics committee. The 4T1 cells were cultured as before, and were dissociated in trypsin and washed twice in cold PBS and resuspended in PBS at 1.5 million/mL. The 4T1 tumors were obtained by subcutaneous transplantation of 0.150 million cells in 100 μL in the flank of female Balb/c mice (9 weeks, January). When the tumors reached a volume of 50-100 mm^3, the mice were fed by stomach tube with 40 mg/kg of DX101 or 40 mg/kg of […] or the control vehicle (water). The treatment was carried out every day until the end of the experiment (tumor volume >1000 mm^3). The tumor volume was determined every day using a caliper gauge and calculated from the formula: ½×(Length*Width^2). The percentage inhibition of tumor growth was determined from the following formula: 100×(1−(tumor volume, day 8/tumor volume day 0)DX107)/(1−(tumor volume, day 8/tumor volume day 0)vehicle).
# The Kaplan-Meier method was used for comparing the animals' survival.
# [3] = system: 4T1 cells; assay: Cytotoxicity on 4T1 cells, CellTox Green Cytotoxicity Assay; type: cell-based, murine; details: Mus musculus, 4T1, Green Cytotoxicity Assay, 48 h
# Procedure: The cellular viability tests were carried out on murine mammary tumor 4T1 cells characterized as negative triples (HER2−, ER−, PR−).
# For this experiment, a cell culture medium was prepared. The culture medium consists of Dulbecco's Modified Eagle Medium (DMEM, marketed by Westburg under the reference LO BE12-604F), comprising 4.5 g/L glucose with L-glutamine, to which 10% of fetal calf serum (FCS) and 50 U/mL of penicillin/streptomycin are added. The 4T1 cells are introduced into this culture medium.
# 96-well plates were seeded with 2000 4T1 cells per well. After 72 hours (h) of culture in normal conditions, i.e. in an incubator at a temperature of 37° C. at 5% CO2, the 4T1 cells are treated for 48 h with DX101, DX107, DX113, DX117, DX119, DX121 or DX131 at 100 nM, 1 μM, 2.5 μM and 10 μM. A control condition (CTL) is also carried out in parallel using the protocol described above but without treatment with the molecules DX101, DX107, DX113, DX117, DX119, DX121, DX131 or DX133.
# For the third method, the percentage viability is determined using the kit CellTox Green Cytotoxicity Assay (Promega). This assay measures cell death via a change in membrane integrity. […] As a result, the higher the fluorescence in the wells, the greater is the cell death. After 48 h of treatment, the cells are incubated for a minimum of 15 minutes in the presence of the Celltox green reagent at room temperature and the fluorescence is read at […]. The percentage cell death is determined using the control 100% of cell death (carried out for untreated cells incubated in the presence of the lysis solution for 30 minutes at 37° C. before adding the Celltox green reagent), and the cellular viability in each well is then deduced from this percentage. IC50 is then determined as explained above.
# [4] = system: Neuro2a cells; assay: Cytotoxicity on Neuro2a cells, trypan blue assay; type: cell-based, murine; details: 48 h; for percentage of live cells compared to the control group: 100 nM
# Procedure: For this experiment, a cell culture medium was prepared. The culture medium consists of a Dulbecco's Modified Eagle Medium (DMEM) marketed by Westburg under the reference LO BE12-604F), comprising 4.5 g/L glucose with L-glutamine, to which 10% of fetal calf serum (FCS) is added. Neuro2a cells (murine neuroblastoma) were introduced into this culture medium.
# 24-well plates were seeded with 10000 Neuro2a cells per well. After culture for 72 hours (h) in normal conditions, i.e. in an incubator at a temperature of 37° C. at 5% CO2, the Neuro2a cells were treated for 48 h with 5α-hydroxy-6β-[2-(1H-imidazol-4-yl)-ethylamino]-cholestan-3β-yl-propionate and 5α-hydroxy-6β-[2-(1H-imidazol-4-yl)-ethylamino]-cholestan-3β-ol at 100 nM, 1 μM and 10 μM. A control (CTL) is also carried out using the protocol described above but without treatment with the aforementioned compounds. Cell survival is quantified by a trypan blue assay with automatic counting with the Biorad TC20 apparatus (TC20™ Automated Cell Counter). The trypan blue assay is based on the integrity of the cell membrane, which is broken in dead cells. The trypan blue stains the dead cells blue. The Biorad TC20 cell counter counts the proportions of blue cells and non-blue cells, relative to the cell percentages.
# [5] = log of IC50 in μM, read-out: Mean LogIC50 (±SEM) (converted)
compound,measurement,setting,value
"CC(C)CCC[C@@H](C)[C@H]1CC[C@H]2[C@@H]3C[C@@H](NCCc4c[nH]cn4)[C@@]4(O)C[C@@H](O)CC[C@]4(C)[C@H]3CC[C@]12C [DX101, 5α-hydroxy-6β-[2-(1H-imidazol-4-yl)-ethylamino]-cholestan-3β-ol, reference compound]",viability at 2.5 µM,[1],~60%
same,viability at 5 µM,[1],~18%
same,Median survival,[2],9 days
same,Inhibition of tumor growth,[2],58%
same,IC50,[3]; [5],3.55 µM
same,IC50,[3]; read-out: IC50,3.55 µM
same,percentage of live cells compared to the control group,[4],unchanged
same,percentage cell survival relative to the control group,[4]; 1 μM,85.42±4.73%
same,percentage cell survival relative to the control group,[4]; 10 μM,43.25%
"CCC(=O)O[C@H]1CC[C@]2(C)[C@H]3CC[C@]4(C)[C@@H]([C@H](C)CCCC(C)C)CC[C@H]4[C@@H]3C[C@@H](NCCc3c[nH]cn3)[C@@]2(O)C1 [DX107, 5α-hydroxy-6β-[2-(1H-imidazol-4-yl)ethylamino]cholestan-3β-yl propionate]",viability at 2.5 µM,[1],~95%
same,viability at 5 µM,[1],~18%
same,Median survival,[2],14 days
same,Inhibition of tumor growth,[2],78%
same,IC50,[3]; [5],2.34 µM
same,IC50,[3]; read-out: IC50,2.33 µM
same,percentage of live cells compared to the control group,[4],unchanged
same,percentage cell survival relative to the control group,[4]; 1 μM,84.08±4.09%
same,percentage cell survival relative to the control group,[4]; 10 μM,30.46±5.22%
